Assays:
[1] = molecular target: T1, stearoyl-CoA desaturase (SCD1) (Mus musculus, UniProt P13516); assay: SCD microsomal assay: release of 3H2O from [9,10-3H]stearoyl-CoA in mouse liver microsomes; assay type: biochemical; conditions: 15 min incubation at 25° C.
T1 construct: Reactions are started by adding 50 μL of microsomes (1.25 mg/mL); from tissue; host or cells: liver microsomes of male ICR outbred mice on a high-carbohydrate, low fat diet
T1 sequence (P13516 1-355): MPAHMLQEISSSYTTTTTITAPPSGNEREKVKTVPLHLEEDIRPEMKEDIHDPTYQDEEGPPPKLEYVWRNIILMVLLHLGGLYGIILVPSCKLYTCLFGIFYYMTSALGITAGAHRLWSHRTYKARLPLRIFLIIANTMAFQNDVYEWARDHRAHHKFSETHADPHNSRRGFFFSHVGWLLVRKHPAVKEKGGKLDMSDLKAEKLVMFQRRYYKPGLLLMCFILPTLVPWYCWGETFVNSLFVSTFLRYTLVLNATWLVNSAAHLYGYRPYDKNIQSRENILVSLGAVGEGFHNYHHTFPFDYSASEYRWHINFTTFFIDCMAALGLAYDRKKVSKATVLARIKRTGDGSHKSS
Source text: The identification of compounds of the invention as SCD inhibitors was readily accomplished using the SCD enzyme and microsomal assay procedure described in Shanklin J. and Summerville C., Proc. Natl. Acad. Sci. USA (1991), Vol. 88, pp. 2510-2514.
Measuring Stearoyl-CoA Desaturase Inhibition Activity of a Test Compound Using Mouse Liver Microsomes
The identification of compounds of the invention as SCD inhibitors was readily accomplished using the SCD microsomal assay procedure described in Shanklin J. and Summerville C., Proc. Natl. Acad. Sci. USA (1991), Vol. 88, pp. 2510-2514.
Male ICR outbread mice, on a high-carbohydrate, low fat diet, under light halothane (15% in mineral oil) anesthesia are sacrificed by exsanguination during periods of high enzyme activity. Livers are immediately rinsed with cold 0.9% NaCl solution, weighed and minced with scissors. All procedures are performed at 4° C. unless specified otherwise. Livers are homogenized in a solution (1/3 w/v) containing 0.25 M sucrose, 62 mM potassium phosphate buffer (pH 7.0), 0.15 M KCl, 15 mM N-acetyleysteine, 5 mM MgCl2, and 0.1 mM EDTA using 4 strokes of a Potter-Elvehjem tissue homogenizer. The homogenate is centrifuged at 10,400×g for 20 min to eliminate mitochondria and cellular debris. The supernatant is filtered through a 3-layer cheesecloth and centrifuged at 105,000×g for 60 min. The microsomal pellet is gently resuspended in the same homogenization solution with a small glass/teflon homogenizer and stored at −70° C. The absence of mitochondrial contamination is enzymatically assessed. The protein concentration is measured using bovine serum albumin as the standard.
Desaturase activity is measured as the release of ^3H2O from [9,10-^3H]stearoyl-CoA. Reactions per assay point conditions are as follows: 2 μL 1.5 mM stearoyl-CoA, 0.25 μL 1 mCi/mL ^3H stearoyl CoA, 10 μL 20 mM NADH, 36.75 μL 0.1 M PK buffer (K2HPO4/NaH2PO4, pH 7.2). The test compound or control solution is added in a 1 μL volume. Reactions are started by adding 50 μL of microsomes (1.25 mg/mL). The plates are mixed and after 15 min incubation on a heating block (25° C.), the reactions are stopped by the addition of 10 μL 60% PCA. An aliquot of 100 μL is then transferred to a filter plate pretreated with charcoal and the plate centrifuged at 4000 rpm for 1 minute. The flow through containing the ^3H2O released by the SCD1 desaturation reaction is added to scintillation fluid and the radioactivity measured in a Packard TopCount. The data is analysed to identify the IC50 for test compounds and reference compounds. […] The activity was defined in terms of % SCD enzyme activity remaining at the desired concentration of the test compound or as the IC50 concentration. The IC50 (affinity) of the example compounds toward the stearoyl-CoA desaturase is comprised between around […] and 0.0001 μM or between around 5 μM and 0.0001 μM or between around 1 μM and 0.0001 μM.

| IC50 [1] [nM] | melting point [°C] | Compound |
| --- | --- | --- |
| 152 | 163 to 164 | Cc1noc(-c2sc(N3CCN(Cc4ccc(C(F)(F)F)cc4)C3=O)nc2C)n1 [Example 44, 1-(4-methyl-5-(3-methyl-1,2,4-oxadiazol-5-yl)thiazol-2-yl)-3-(4-(trifluoromethyl)benzyl)imidazolidin-2-one] |
| 428 |  | Cc1cc(N2CCN(Cc3ccc(F)cc3)C2=O)sc1-c1nc(Cc2ccccc2)c[nH]1 [Example 60, 1-(5-(4-benzyl-1H-imidazol-2-yl)-4-methylthiophen-2-yl)-3-(4-fluorobenzyl)imidazolidin-2-one] |
| 1240 | 153 to 154 | Cc1nc(N2CCN(Cc3ccc(C(F)(F)F)cc3)C2=O)sc1-c1ccno1 [Example 38.1, 1-(5-(isoxazol-5-yl)-4-methylthiazol-2-yl)-3-(4-(trifluoromethyl)benzyl)imidazolidin-2-one] |
| 459 | 107 to 108 | Cc1nc(N2CCN(Cc3ccc(C(F)(F)F)cc3)C2=O)sc1Br [Example 45, 1-(5-bromo-4-methylthiazol-2-yl)-3-(4-(trifluoromethyl)benzyl)imidazolidin-2-one] |
| 27 |  | Cc1cc(N2CCN(Cc3ccc(F)cc3)C2=O)sc1C(=O)NC1Cc2ccccc2C1 [Example 55.8, N-(2,3-dihydro-1H-inden-2-yl)-5-(3-(4-fluorobenzyl)-2-oxoimidazolidin-1-yl)-3-methylthiophene-2-carboxamide] |

More lines, now with the values behind:

| Compound | IC50 [1] [nM] | melting point [°C] |
| --- | --- | --- |
| Cc1nc(N2CCN(Cc3ccccc3)C2=N)sc1C(=O)NCc1ccccc1 [Example 27.3, N-benzyl-2-(3-benzyl-2-iminoimidazolidin-1-yl)-4-methylthiazole-5-carboxamide] | 25 | 125 to 126 |
| O=C(NCc1cccnc1)c1sc(N2CCN(Cc3ccc(F)cc3)C2=O)nc1C(F)(F)F [Example 26.1, 2-(3-(4-fluorobenzyl)-2-oxoimidazolidin-1-yl)-N-(pyridin-3-ylmethyl)-4-(trifluoromethyl)thiazole-5-carboxamide] | 39 | 161 to 162 |
| Cc1nc(-n2ccn(Cc3ccc(C(F)(F)F)cc3)c2=O)sc1C(=O)NCc1cccnc1 [Example 17.3, 4-methyl-2-(2-oxo-3-(4-(trifluoromethyl)benzyl)-2,3-dihydro-1H-imidazol-1-yl)-N-(pyridin-3-ylmethyl)thiazole-5-carboxamide] | 12 | 163 to 164 |
| Cc1nc(N2CCN(CC3CCCCO3)C2=O)sc1C(=O)NCc1ccccc1 (stereo not shown) [Example 23.6, N-benzyl-4-methyl-2-(2-oxo-3-((tetrahydro-2H-pyran-2-yl)methyl)imidazolidin-1-yl)thiazole-5-carboxamide] | 495 |  |
| Cc1nc(N2CCN(Cc3ccccn3)C2=O)sc1C(=O)NCc1cccnc1 [Example 32.8, 4-methyl-2-(2-oxo-3-(pyridin-2-ylmethyl)imidazolidin-1-yl)-N-(pyridin-3-ylmethyl)thiazole-5-carboxamide] | 267 | 58 to 61 |
| CCN1CCN(c2nc(C)c(C(=O)NCc3cccnc3)s2)C1=O [Example 9.39, 2-(3-ethyl-2-oxoimidazolidin-1-yl)-4-methyl-N-(pyridin-3-ylmethyl)thiazole-5-carboxamide] | 124 | 163 to 164 |
| CCOC(=O)c1ccc(CN2CCN(c3nc(C)c(C(=O)NCc4ccccc4)s3)C2=O)cc1 [Example 23.2, ethyl 4-((3-(5-(benzylcarbamoyl)-4-methylthiazol-2-yl)-2-oxoimidazolidin-1-yl)methyl)benzoate] | 61 | 118 to 120 |
| Cc1nc(-n2cnn(CC(=O)Nc3ccc(Cl)cc3)c2=O)sc1C(=O)NCc1cccnc1 [Example 19.10, 2-(1-(2-(4-chlorophenylamino)-2-oxoethyl)-5-oxo-1H-1,2,4-triazol-4(5H)-yl)-4-methyl-N-(pyridin-3-ylmethyl)thiazole-5-carboxamide] | 577 | 255 to 256 |
| Cc1nc(N2CCN(Cc3ccc(F)cc3)C2=O)sc1C(=O)NCc1cccnn1 [Example 32.15, 2-(3-(4-fluorobenzyl)-2-oxoimidazolidin-1-yl)-4-methyl-N-(pyridazin-3-ylmethyl)thiazole-5-carboxamide] |  | 222 to 225 |
| Cc1nc(-n2cnn(CCO)c2=O)sc1C(=O)NCc1cccnc1 [Example 19.9, 2-(1-(2-hydroxyethyl)-5-oxo-1H-1,2,4-triazol-4(5H)-yl)-4-methyl-N-(pyridin-3-ylmethyl)thiazole-5-carboxamide] |  | 201 to 202 |

Source: patent US8293768B2, “Organic compounds” (Novartis AG, priority 2006, dated 2012)
